Experimental data published in patent publication US8329645B2, “Polymyxin derivatives and uses thereof” (priority 2008, dated 2012).
Where a SMILES comes first, the peptide text is derived from it. Bridges are numbered along the chain shown (N, C = ends). [ ]: non-standard residue; d: D form. The star is where a group is joined. Octanoyl = CCCCCCCC(=O)*; Dab = NCC[C@H](N)C(=O)O; Abu = CC[C@H](N)C(=O)O

Columns and labels:
[1] = system: E. coli IH3080; assay: Experimental E. coli peritonitis model in mice, NAB739 (Example 18); format: in vivo
Method: A suspension of E. coli IH3080 (K1:O18) in saline (0.9% NaCl) was prepared from an overnight culture on a blood agar plate (Statens Serum Institut, Copenhagen, Denmark). All mice (female NMR1 from Harlan Scandinavia, Allerød, Denmark; weight, 25-30 g) were inoculated intraperitoneally with 0.5 ml of the suspension containing 0.96×10^6 CFU per ml in the lateral lower quadrant of the abdomen. At 1 h, the CFU count was determined from three mice and the remaining mice (four mice per group) were treated with a subcutaneous injection of 0.2 ml of erythromycin solution in saline (corresponding to 5 mg/kg body weight) or NAB7061 solution in saline (corresponding to 5 mg/kg body weight), or both erythromycin and NAB7061 (corresponding to 5 mg/kg body weight of both drugs; given at two separate sites). Control group received two 0.2 ml injections of saline. At 4.5 h postinfection, all mice were anaesthetized with CO2 and sacrificed. Sterile saline (2 ml) was injected intraperitoneally and the abdomen was gently massaged before it was opened and the fluid sampled. Appropriate dilutions of the fluid were plated on blood agar plates, the plates were incubated overnight, and the colonies were counted.
The experiment was performed by using the methodology described in Example 12.
The mice were inoculated intraperitoneally with 0.5 ml of the E. coli IH3080 suspension containing 1×10^6 CFU per ml. The treatment groups (7 animals per group) were the following: A, control animals receiving saline; B, animals receiving the dose of 1 mg/kg of NAB739 subcutanously at 1 h and at 3 h postinfection; C, animals receiving the dose of 2 mg/kg of NAB739 subcutanously at 1 h and at 3 h postinfection; D, animals receiving the dose of 4 mg/kg of NAB739 subcutanously at 1 h and at 3 h postinfection; E, animals receiving the dose of 2 mg/kg of the control compound, polymyxin B sulfate (Sigma-Aldrich, P0972) subcutanously at 1 h and at 3 h postinfection.

[2] = system: S. aureus ATCC 25923; assay: Growth inhibition around wells on LB agar plates; format: cell-based, Staphylococcus aureus
Method: From an overnight-grown culture of IH3080 on LB agar, a suspension of approx. 10^8 cells/ml was prepared in 0.9% NaCl. Aliquots of this suspension were then pipetted on the agar plates and the plates were gently shaken to spread the suspension evenly on the entire surface of the plate. Thereafter, the unabsorbed part of the suspension was removed by using a Pasteur pipette. After the surface had dried, small wells (diameter, 2 mm) were drilled on the plates (five wells per plate) by using a sterile sharp-edged narrow metal tube, single-use pipette tip, and vacuum suction. An alternative method used a swab to spread the inoculum. Samples (4 μl and 10 μl) of the peptide solution in 0.9% NaCl (at concentrations of 1 μg/ml and 0.1 μg/ml) were then pipetted to the wells and the sample fluids were allowed to absorb. Controls included 0.9% NaCl solution without the compound to be tested. The plates were then incubated for 18 h at 37° C. whereafter the diameters of growth inhibition zones around each well were measured; the diameter of the well itself was not reduced. Finally, the diameters were converted to surface areas of growth inhibition (in square mm).
The susceptibility of eleven Gram-negative bacterial strains (nine different species) to NAB734 and polymyxin B was compared by using the susceptibility determination method described in Example 2. The strains included those belonging to the species of Serratia marcescens and Proteus mirabilis, both species generally known to be resistant to polymyxin. Furthermore, the susceptibility determination was also performed by using the Gram-positive bacterium, Staphylococcus aureus, also generally known to be polymyxin-resistant. Ten of the strains originated from ATCC (American Type Culture Collection, Manassas, Va., U.S.A.), and one from CCUG (Culture Collection of University of Gothenburg, Sweden). The source of E. coli IH3080 has been described in Example 2. Polymyxin B sulfate was from Sigma-Aldrich (St. Louis, Mo., USA).

[3] = system: E. coli IH3080 (O18:K1); assay: Synergistic bactericidal activity with guinea pig serum (complement); format: cell-based, Escherichia coli
Method: The ability of NAB7061 to sensitize encapsulated, smooth strain of E. coli to the bactericidal action of normal guinea pig serum (GPS) was studied by the method described by Vaara et al. (1984). E. coli IH3080 (018,K1) was grown in LB broth (LB broth Lennox, Difco, BD, Sparks, Md., U.S.A) at 37° C. in a rotary shaker into early logarithmic growth phase, washed with PBS (phosphate-buffered saline, 8.0 g of NaCl, 0.2 g of KCl, 1.44 g of Na2HPO4×2H2O and 0.2 g of KH2PO4 per liter) and resuspended in PBS, to approx. 10^9 cells/ml). GPS was used as complement source. It was stored at −70° C. before use.
The experimental procedure was as follows. 10% GPS in PBS was inoculated with approx. 500 CFU (colony forming units) of bacteria per ml and pipetted in 0.2 ml aliquots into wells of microtiter plates. The wells already contained increasing amounts of NAB7061 in 0.020 ml of 0.9% NaCl. The plate was incubated at 37° C. for 2 h whereafter each well was emptied onto LB plates. The plates were incubated overnight at 37° C. and the developed colonies were counted.

CCCCCCCC(=O)N[C@H](C(=O)N[C@H](CO)C(=O)N[C@H]1CCNC(=O)[C@H]([C@@H](C)O)NC(=O)[C@H](CCN)NC(=O)[C@H](CCN)NC(=O)[C@H](CC(C)C)NC(=O)[C@@H](Cc2ccccc2)NC(=O)[C@H](CCN)NC1=O)[C@@H](C)O [NAB 739, OA-Thr-DSer-cy[Dab-Dab-DPhe-Leu-Dab-Dab-Thr-]] (Octanoyl-T[dS][Dab][Dab][dF]L[Dab][Dab]T; lactam 3-C)
CFU counts from the peritoneum, fold lower than in the saline control group ([1]; 1 mg/kg s.c. at 1 h and 3 h, 7 h postinfection): ≥ 10 000 fold | CFU counts from the peritoneum, fold lower than in the saline control group ([1]; 2 mg/kg s.c. at 1 h and 3 h, both 4 h and 7 h postinfection): ≥ 10 000 fold | CFU counts from the peritoneum, fold lower than in the saline control group ([1]; 4 mg/kg s.c. at 1 h and 3 h, both 4 h and 7 h postinfection): ≥ 10 000 fold

Polymyxin B [reference compound]
growth inhibition around a well ([2]; 4 μg): 0 square millimeters | growth inhibition around a well ([2]; 10 μg): 0 square millimeters

CCCCCCCC(=O)N[C@H](C(=O)N[C@@H](CC)C(=O)N[C@H]1CCNC(=O)[C@H]([C@@H](C)O)NC(=O)[C@H](CCN)NC(=O)[C@H](CCN)NC(=O)[C@H](CC(C)C)NC(=O)[C@@H](Cc2ccccc2)NC(=O)[C@H](CCN)NC1=O)[C@@H](C)O [NAB 7061, OA-Thr-Abu-cy[Dab-Dab-DPhe-Leu-Dab-Dab-Thr-]] (Octanoyl-T[Abu][Dab][Dab][dF]L[Dab][Dab]T; lactam 3-C)
% survival after 2-hour treatment at 37° C. ([3]; 10% GPS, heat inactivated, NAB7061 2 μg/ml): 500% | % survival after 2-hour treatment at 37° C. ([3]; 10% GPS, NAB7061 2 μg/ml): 2% | % survival after 2-hour treatment at 37° C. ([3]; 10% GPS, NAB7061 4 μg/ml): 0% | % survival after 2-hour treatment at 37° C. ([3]; none (PBS), NAB7061 2 μg/ml): 97%
